# Values quoted from earlier work in patent US20110004098A1, “ESTER IMAGING AGENTS” (priority 2008, published 2011).
# System: bladder carcinoma in situ
# Settings: cystoscopy with Hexvix, as opposed to 58% with white light cystoscopy
smiles,measurement,value
"CCCCCCOC(=O)CCC(=O)CN.Cl [Hexvix, n-hexyl 5-aminolevulinate hydrochloride]",sensitivity of detecting bladder carcinoma in situ,97%
